Reference: patent publication US8999654B2, “Method of identifying a compound for the treatment or prevention of obesity” (Omeros Corporation, priority 2003, dated 2015)

Assays:
[1] = system: WT and GPR85 KO mice; conditions: 2.5 g/kg i.p. ethanol, rectal temperature 30 minutes post injection, both WT and GPR85 KO mice
Description: Initial sensitivity to alcohol is measured in mice after a single (acute) dose. […] Core body temperature was measured rectally (T0) (Physitemp) and then the mice were administered an i.p. dose of 2.5 mg/kg and placed in a Plexiglas dosing chamber. that is the same size as the animal's cage. Core body temperature was measured rectally 30 minutes post injection (T1) and returned to their home cage. Mice were housed in the testing room overnight.

[2] = system: CHO cells stably transfected with a GPCR expression vector; test: Intracellular calcium measurement using FLIPR; format: cell-based; conditions: positive controls; FLIPR fluorescence, signal measured for approximately 200 seconds
Description: Changes in intracellular calcium levels are another recognized indicator of G protein-coupled receptor activity, and such assays can be employed to screen for modulators of GPCR activity. For example, CHO cells stably transfected with a GPCR expression vector are plated at a density of 40,000 cells/well in 96-well plates specially designed to discriminate fluorescence signals emanating from the various wells on the plate. The cells are incubated for 60 minutes at 37° C. in modified Dulbecco's PBS containing pyruvate and 1 g/L glucose with the addition of 1% fetal bovine serum and one of four calcium indicator dyes (Fluo-3™ AM, Fluo-4™ AM, Calcium Green™-1 AM, or Oregon Green™ BAPTA-1 AM). Plates are washed once with modified Dulbecco's PBS without 1% fetal bovine serum and incubated for 10 minutes at 37° C. to remove residual dye from the cellular membrane. […] Fluorescence is measured by Molecular Device's FLIPR with an argon laser (excitation […]) (Kuntzweiler et al., Drug Development Research, 44(1):14-20 (1998)).
Basal fluorescence of cells was measured for 20 seconds prior to addition of candidate agonist, ATP, or A23187, and the basal fluorescence level was subtracted from the response signal. The calcium signal is measured for approximately 200 seconds, taking readings every two seconds. […]

[3] = system: GPR88 KO and WT mice; test: Amphetamine-induced hyperactivity, open field activity test; format: in vivo, mouse; conditions: amphetamine 2.5 mg/kg i.p., 30 min before test, monitored 20 min; both WT and GPR88 KO mice, p<0.001
Text: However, the activity level of KO mice (n=18) was much higher than that of the WT mice (n=18) (p<0.001 for the first 4-min block, p<0.05 for the second 4-min block, p<0.05 during the whole 20-min period). There was a strong genotype×treatment interaction for the first 4-min block (F(3,68)=10.5, p<0.01, two-way ANOVA).
Another test assays open field activity. Locomotor activity is detected by photobeam breaks as the animal crosses each beam. Measurements used to assess locomotor activity include, for example, total distance traveled, total number of rearing events (animal raises up on hindlimbs), and distance traveled in the center compared to total distance traveled (center: total distance ratio). Typically, mice are placed in the center of the field. Mice will normally explore the edges/walls first and then, over time, spend more time in the center as they become familiar with the environment. Open field activity determination provides data on the general activity level of mice (i.e. hypo- or hyper-active), as well as an indication of the animal's anxiety-related behaviors in an open-space.

[4] = system: WT and GPR88 KO mice; test: Amphetamine-induced hyperactivity (locomotor activity in activity chambers); format: in vivo, mouse; conditions: amphetamine 2.5 mg/kg i.p., 30 minutes after injection, monitored 20 min, both WT and GPR88 KO mice, p<0.001
Description: Open field activity was monitored in VersaMax chambers (Accuscan Instruments, Columbus, Ohio) measuring 40×40 cm. Locomotor activity was detected by photobeams breaks as the animal crossed each beam. The animal was placed in the center of the field and then left undisturbed for a period of time (20 min to 2 hr) in order to measure its spontaneous activity in a novel environment. Measurements used to assess locomotor activity included: horizontal activity, total distance traveled, vertical activity (rearing events—animal raises up on hindlimbs), rotation, stereotypy, and distance traveled in the center compared to total distance traveled (center: total distance ratio).
Amphetamine-induced hyperactivity of GPR88 knockout mice was measured by injecting the animals with amphetamine and monitoring the animals' activity levels.

[5] = system: GPR88 KO and WT mice; test: Amphetamine-induced reduction of prepulse inhibition (PPI) of acoustic startle; conditions: amphetamine 2.5 mg/kg i.p., tested 30 min later
[6] = system: WT and GPR88 KO mice; test: Amphetamine-induced reduction of prepulse inhibition (PPI) of the acoustic startle response; conditions: amphetamine 2.5 mg/kg i.p., tested 30 minutes later, both WT and GPR88 KO mice (129sv)

SMILES: CCO [ethanol]
- effect on core body temperature (hypothermic effect) [1]: reduced body temperature in both WT and KO mice

SMILES: Nc1ncnc2c1ncn2[C@@H]1O[C@H](COP(=O)(O)OP(=O)(O)OP(=O)(O)O)[C@@H](O)[C@H]1O [ATP]
- increase of calcium signal above baseline levels [2]: 200%

SMILES: CNc1ccc2oc(C[C@H]3O[C@@]4(CC[C@H]3C)O[C@H]([C@H](C)C(=O)c3ccc[nH]3)[C@H](C)C[C@H]4C)nc2c1C(=O)O [A23187]
- increase of calcium signal above baseline levels [2]: 200%

SMILES: CC(N)Cc1ccccc1 (centres unmarked) [amphetamine]
- locomotor activity after amphetamine compared to baseline locomotor activity in the absence of drugs [3]: significantly higher activity
- locomotor activity compared to baseline in the absence of drugs [4]: significantly higher activity
- startle responses to the 120 dB stimulus after amphetamine treatment ([5]; both WT and GPR88 KO mice (129sv)): significantly decreased
- PPI after amphetamine treatment ([5]; both WT and GPR88 KO mice, p<0.001): significant reduction of PPI
- startle response to the 120 dB stimulus [6]: significantly decreased
